Test results from US20070254911A1, “Tetrahydro-Pyrazolo[3,4-c]Pyridine Cannabinoid Modulators” (priority 2006, published 2007).

Key:
[1] = molecular target: T1, human CB1 receptor (Homo sapiens, UniProt P21554); test: Binding assay for CB1, radioligand [3H]-CP-55,940 displacement on membranes of transfected SK-N-MC cells; settings: for IC50: human CB1 in SK-N-MC membranes, [3H]-CP-55,940 0.2 nM, calculated by linear regression, read-out: Cannabinoid CB1 Receptor Binding IC50
T1 construct: expressed in transfected cells; host or cells: SK-N-MC cells, stably transfected with pcDNA3 CB-1 (human); semi-purified membrane pellet
Description: (§1) Binding Assay for CB1 or CB2 Agonists or Inverse Agonists
(§2) The human CB1 and CB2 receptors were stably expressed in SK-N-MC cells transfected with pcDNA3 CB-1 (human) or pcDNA3 CB-2 (human). The cells were grown in T-180 cell culture flasks under standard cell culture conditions at 37° C. in a 5% CO2 atmosphere. The cells were harvested by trysinization and homogenized in a homogenization buffer (10 mM Tris, 0.2 mM MgCl2, 5 mM KCl, with protease inhibitors aprotinin, leupeptin, pepstatin A and bacitracin) and centrifuged (2000 g). The supernatant was then centrifuged in 2M sucrose (31,300 g) to produce a semi-purified membrane pellet. The pellet was resuspended in homogenization and stored at −80° C.
(§3) On the day of the assay, the pellet was thawed on ice and diluted in assay buffer (50 mM Tris-HCl, 5 mM MgCl2, 2.5 mM EDTA, 0.5 mg/mL fatty acid free bovine serum albumin, pH 7.5). The diluted membrane pellet was added with buffer, either a test compound or vehicle standard and a the radioligand [H]^3+-CP-55,940 (0.2 nM) to the wells of a 96-well polypropylene plate. Non-specific binding was measured in wells containing WIN 55,212 (10 uM). The plate was covered and incubated for 90 minutes at 30° C. The contents were then aspirated onto a Packard Unifilter GF/C filter bottom plate prewet with 0.5% polyethyleneimine. The wells of the polypropylene plate were rinsed and aspirated seven times with a 0.9% saline-0.5% Tween 20 solution. The Unifilter plate was dried, a scintillation cocktail was added to each well and the counts representing binding were quantitated in a TopCount scintillation counter.
(§4) For compounds tested, an IC50 binding value was obtained from percent inhibition studies in which various test concentrations were used. The binding value (in μM) was calculated by linear regression.
(§5) For compounds without an IC50 binding value, the percent inhibition (%) was obtained at a test concentration of 0.2 μM.

[2] = molecular target: T2, human CB2 receptor (Homo sapiens, UniProt P34972); test: Binding assay for CB2, radioligand [3H]-CP-55,940 displacement on membranes of transfected SK-N-MC cells; settings: test concentration of 0.2 μM; human CB2 in SK-N-MC membranes; read-out: Cannabinoid CB2 Receptor Binding Inhibition (%)
T2 construct: expressed in transfected cells; host or cells: SK-N-MC cells, stably transfected with pcDNA3 CB-2 (human); semi-purified membrane pellet
Description: as §1, §2, §3, §4, §5

T2 sequence (P34972 whole entry): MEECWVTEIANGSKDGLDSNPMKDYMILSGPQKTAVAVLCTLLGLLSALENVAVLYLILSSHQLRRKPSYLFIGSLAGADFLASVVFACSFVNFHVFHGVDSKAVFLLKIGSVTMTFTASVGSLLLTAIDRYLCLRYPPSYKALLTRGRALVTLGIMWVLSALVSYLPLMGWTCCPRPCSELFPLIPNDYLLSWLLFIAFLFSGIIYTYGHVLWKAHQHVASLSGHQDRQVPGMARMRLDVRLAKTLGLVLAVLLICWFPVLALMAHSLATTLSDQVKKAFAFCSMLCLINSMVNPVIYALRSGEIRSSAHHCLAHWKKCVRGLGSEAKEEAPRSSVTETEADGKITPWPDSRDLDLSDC
T1 sequence (P21554 whole entry): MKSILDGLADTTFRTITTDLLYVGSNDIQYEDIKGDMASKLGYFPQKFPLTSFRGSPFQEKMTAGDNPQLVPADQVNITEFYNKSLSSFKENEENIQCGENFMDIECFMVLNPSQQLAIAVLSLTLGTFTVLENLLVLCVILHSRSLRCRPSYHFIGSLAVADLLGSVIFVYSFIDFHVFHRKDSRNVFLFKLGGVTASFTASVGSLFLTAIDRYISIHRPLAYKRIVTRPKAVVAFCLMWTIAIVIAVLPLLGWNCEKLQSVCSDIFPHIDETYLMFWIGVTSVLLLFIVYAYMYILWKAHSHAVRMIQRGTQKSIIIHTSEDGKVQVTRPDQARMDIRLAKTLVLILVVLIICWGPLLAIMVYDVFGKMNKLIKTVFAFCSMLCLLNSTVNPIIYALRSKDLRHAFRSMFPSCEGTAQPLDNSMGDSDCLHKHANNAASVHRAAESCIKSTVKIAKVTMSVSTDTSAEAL

Structure (SMILES) | IC50 [1] | inhibition at 0.2 µM [2] | inhibition at 0.2 µM ([1]; test concentration of 0.2 μM, for compounds without an IC50 binding value, read-out: Cannabinoid CB1 Receptor Binding percent inhibition)
C[C@@H](NC(=O)c1nn(-c2ccc(Cl)cc2Cl)c2c1CCN(C(=O)OC(C)(C)C)/C2=C/c1ccc(F)cc1)c1ccccc1 [Cpd 1, (7E)-1-(2,4-dichloro-phenyl)-7-(4-fluoro-benzylidene)-3-[(1R)-1-phenyl-ethylcarbamoyl]-1,4,5,7-tetrahydro-pyrazolo[3,4-c]pyridine-6-carboxylic acid tert-butyl ester] | 10 nM | 35% | –
COC(=O)N1CCc2c(C(=O)NC(C)c3ccccn3)nn(-c3ccc(Cl)cc3Cl)c2/C1=C\c1ccc(F)cc1 (stereo not shown) [Cpd 5, (7E)-1-(2,4-dichloro-phenyl)-7-(4-fluoro-benzylidene)-3-(1-pyridin-2-yl-ethylcarbamoyl)-1,4,5,7-tetrahydro-pyrazolo[3,4-c]pyridine-6-carboxylic acid methyl ester] | 33 nM | 17% | –
CC(C)(C)OC(=O)N1CCc2c(C(=O)N3CCCCC3)nn(-c3ccc(Cl)cc3Cl)c2/C1=C\c1ccc(F)cc1 [Cpd 4, (7E)-1-(2,4-dichloro-phenyl)-7-(4-fluoro-benzylidene)-3-(piperidine-1-carbonyl)-1,4,5,7-tetrahydro-pyrazolo[3,4-c]pyridine-6-carboxylic acid tert-butyl ester] | – | 18% | 39%
CC(C)(C)OC(=O)N1CCc2c(C(=O)NN3CCCCC3)nn(-c3ccc(Cl)cc3Cl)c2/C1=C\c1ccc(F)cc1 [Cpd 3, (7E)-1-(2,4-dichloro-phenyl)-7-(4-fluoro-benzylidene)-3-(piperidin-1-ylcarbamoyl)-1,4,5,7-tetrahydro-pyrazolo[3,4-c]pyridine-6-carboxylic acid tert-butyl ester] | 12 nM | 13% | –
CC(NC(=O)c1nn(-c2ccc(Cl)cc2Cl)c2c1CCN(C(=O)OC(C)(C)C)/C2=C/c1ccc(F)cc1)c1ccccn1 (stereo not shown) [Cpd 2, (7E)-1-(2,4-dichloro-phenyl)-7-(4-fluoro-benzylidene)-3-(1-pyridin-2-yl-ethylcarbamoyl)-1,4,5,7-tetrahydro-pyrazolo[3,4-c]pyridine-6-carboxylic acid tert-butyl ester] | 48 nM | 13% | –
